“And” between values parts separate entries of the source, which are not always exact repeats. Equal entries are not always repeated.
Assays:
[1] = Daily blood glucose profile of a subject with early stage Type 2 diabetes during GNTI administration; format: in vivo; settings: human; for Average blood glucose by day of week / Readings In Target, 65-155 (as %) / Readings Lows, 51-64 (as %): GNTI once weekly
Experimental: The daily blood glucose profile of a subject with early stage, [non-insulin dependent] Type 2 diabetes was monitored during extended periods of administration of guanidinylated naltrindole (GNTI).
A weekly dose of about 70 ng/kg was administered.
FIGS. 1-3 illustrate the blood glucose readings over an extended period of time, a modal week and a modal day. The target blood glucose range was 65-155 mg/dL. Table 3 illustrates that 98% of the readings were within the target range. The other 2% of the readings fell below the target range and fell between 51-64 mg/dL.
FIGS. 1-3 illustrate the subject's blood glucose readings over an extended period of time, a modal week, and a modal day. Accordingly, 227 blood glucose readings were taken, averaging 92 mg/dL over a 15 day period. 98% of all readings were between 65 and 127 mg/dL, and 2% between […], representing a very narrow overall spread.

[2] = Weight (BMI) of the subject with early stage Type 2 diabetes during GNTI administration; format: in vivo; settings: human, extended periods of GNTI administration
Source text: The weight of the subject with early stage Type 2 diabetes mellitus was also monitored during extended periods of administration on GNTI, decreasing from, a baseline body mass index (BMI) of 25 to an average BMI of 22.8, corresponding to a reduction by about 9%.

[3] = Blood glucose, HDL-C and triglycerides in rhesus monkeys after an oral dose of GNTI; format: in vivo, rhesus monkey
Experimental: A cohort of rhesus monkeys having progressively increasing degrees of impaired glucose tolerance were monitored following an oral dose of GNTI of 86 ng/kg of body weight. Baseline readings of blood glucose (BC), high density lipoprotein C (HDL-C) and triglycerides (TO) were taken on Day 0.
The effect of GNTI was most readily seen in the change of blood glucose and blood lipid levels. […] The other 4 subjects of the cohort, i.e., r98060, r96027, r00072, r01078, had baseline blood glucose levels ranging from 71-81 and were considered to have impaired glucose tolerance.

[4] = Meal tolerance test (MTT) in metabolically impaired rhesus monkeys treated with GNTI; format: in vivo, rhesus monkey; settings: for BG / GIP / GLP-1 / Glucagon / Insulin / Glucagon Change T0-T60/120: individual animals
Experimental: To test for the effect of physiological first phase insulin secretion, a meal tolerance test (MTT) was developed. The meal tolerance test involved oral administration of meal based nutrients within suitable ratios of carbohydrates, proteins and fats. The ratios used for the given example were 70% carbohydrates, 8% protein and 22% fats. […] Following MTV administration, the same readings were taken at time points of 3-9 minutes to test for first-phase insulin secretion and the subsequent reduction in blood glucose. It was determined that a first-phase insulin secretion dependent slight increase in insulin concentration appeared, typically, at 5 minutes post MTT administration, followed by a corresponding blood glucose decrease at 7 minutes. A slight decrease in glucagon levels was also coupled with first-phase insulin secretion at 5 minutes. The MTT serves as a corollary to the intravenous glucose tolerance test (MITT) and better measures first-phase insulin secretion because oral administration of nutrients has a more direct effect on the incretin effect.
Table 7 illustrates administration of the MTT to two rhesus monkeys categorized as metabolically “normal’ based on “normal” fasting blood glucose values. The monkeys were given a diet of 55-60% carbohydrates, 15-25% protein, and 15-30% fat. Readings of blood glucose, insulin, and glucagon were taken at time points 0, 5, 7, 60 and 120 minutes. Additionally, at the same time points, the incretin hormones, GIP and GLP-1 were measured to more directly measure the incretin effect. […] Comparison of blood glucose levels at time points 0 and 120 minutes illustrates that normal metabolic functioning has returned the subject's blood glucose levels to normal within 120 minutes of MTT administration.
Table 8 illustrates the effect of GNTI on physiologic control of glucagon Baseline readings were taken on Day 1 of blood glucose, insulin, glucagon, GIP, and GLP-1 in metabolically impaired rhesus monkeys as determined through administration of the MTT. Cumulative in-situ doses of 45 ng/kg and 95 ng/kg were active on day 5 and day 7, respectively, during administration of the MTT. Readings of blood glucose, insulin, glucagon, GIP, and GLP-1 were taken at time points 0, 60 minutes and 120 minutes.

[5] = GNTI about 70 ng/kg weekly, Early AM 00:00-04:59
[6] = GNTI about 70 ng/kg weekly, Evening 15:00-18:59
[7] = GNTI about 70 ng/kg weekly, Midday 11:00-14:59
[8] = GNTI about 70 ng/kg weekly, Morning 05:00-10:59
[9] = GNTI about 70 ng/kg weekly, Night 19:00-23:59
[10] = GNTI about 70 ng/kg weekly, all readings, 15 day period
[11] = GNTI about 70 ng/kg weekly, of 227 readings
[12] = GNTI about 70 ng/kg weekly, overall
[13] = early stage Type 2 diabetes, GNTI about 70 ng/kg weekly, 15 days
[14] = four dyslipidemic rhesus monkeys, day 8, oral GNTI 86 ng/kg
[15] = rhesus monkeys, individual animals, Day 8 after oral GNTI 86 ng/kg on Day 0
[16] = Day 5, GNTI 45 ng/kg cumulative, MTT TP 0 min
[17] = Day 5, GNTI 45 ng/kg cumulative, MTT TP 60 min
[18] = Day 5, GNTI 45 ng/kg cumulative, MTT TP 120 min
[19] = Day 7, GNTI 95 ng/kg cumulative, MTT TP 0 min
[20] = Day 7, GNTI 95 ng/kg cumulative, MTT TP 60 min
[21] = Day 7, GNTI 95 ng/kg cumulative, MTT TP 120 min

Q: What does the source list for `NC(N)=Nc1ccc2[nH]c3c(c2c1)C[C@@]1(O)[C@H]2Cc4ccc(O)c5c4[C@@]1(CCN2CC1CC1)[C@H]3O5` [GNTI, guanidinylated naltrindole]?
A: Average blood glucose [1, 5]: 79 mg/dL; Readings In Target, 65-155 mg/dL [1, 5]: 100%; Average blood glucose [1, 6]: 91 mg/dL; Readings In Target, 65-155 mg/dL [1, 6]: 100%; Average blood glucose [1, 7]: 92 mg/dL; Readings In Target, 65-155 mg/dL [1, 7]: 98%; Readings Lows, 51-64 mg/dL [1, 7]: 2%; Average blood glucose [1, 8]: 90 mg/dL; Readings In Target, 65-155 mg/dL [1, 8]: 97%; Readings Lows, 51-64 mg/dL [1, 8]: 3%; Average blood glucose [1, 9]: 95 mg/dL; Readings In Target, 65-155 mg/dL [1, 9]: 97%; Readings Lows, 51-64 mg/dL [1, 9]: 3%; Readings between 61 and 65 mg/dL [1, 10]: 2%; Readings between 65 and 127 mg/dL [1, 10]: 98%; Number of readings High (156-300 mg/dL) [1, 11]: 0; Number of readings Low (51-64 mg/dL) [1, 11]: 5; Number of readings Target (65-155 mg/dL) [1, 11]: 222; Number of readings Very High (301-601 mg/dL) [1, 11]: 0; Number of readings Very Low (0-50 mg/dL) [1, 11]: 0; Percent of readings High (156-300 mg/dL) [1, 12]: 0%; Percent of readings Very High (301-601 mg/dL) [1, 12]: 0%; Percent of readings Very Low (0-50 mg/dL) [1, 12]: 0%; Readings In Target, 65-155 mg/dL [1, 12]: 98%; Readings Lows, 51-64 mg/dL [1, 12]: 2%; Readings in the hypoglycemic range ([1]; GNTI about 70 ng/kg weekly, readings below target range): none of these readings were in the hypoglycemic range; Average blood glucose by day of week ([1]; Fri): 96 mg/dL; Readings In Target, 65-155 (as %) ([1]; Fri): 100%; Average blood glucose by day of week ([1]; Mon): 92 mg/dL; Readings In Target, 65-155 (as %) ([1]; Mon): 100%; Average blood glucose by day of week ([1]; Sat): 92 mg/dL; Readings In Target, 65-155 (as %) ([1]; Sat): 100%; Average blood glucose by day of week ([1]; Sun): 92 mg/dL; Readings In Target, 65-155 (as %) ([1]; Sun): 100%; Average blood glucose by day of week ([1]; Thur): 94 mg/dL; Readings In Target, 65-155 (as %) ([1]; Thur): 100%; Average blood glucose by day of week ([1]; Tue): 87 mg/dL; Readings In Target, 65-155 (as %) ([1]; Tue): 87%; Readings Lows, 51-64 (as %) ([1]; Tue): 13%; Average blood glucose by day of week ([1]; Wed): 88 mg/dL; Readings In Target, 65-155 (as %) ([1]; Wed): 93%; Readings Lows, 51-64 (as %) ([1]; Wed): 7%; Average blood glucose by day of week ([1]; Weekdays): 92 mg/dL; Readings In Target, 65-155 (as %) ([1]; Weekdays): 97%; Readings Lows, 51-64 (as %) ([1]; Weekdays): 3%; Average blood glucose by day of week ([1]; Weekends): 92 mg/dL; Readings In Target, 65-155 (as %) ([1]; Weekends): 100%; Highest Blood Glucose [1, 13]: 127 mg/dL; Lowest Blood Glucose [1, 13]: 61 mg/dL; Average blood glucose ([1]; early stage Type 2 diabetes, GNTI about 70 ng/kg weekly, overall, 15 days, 227 readings): 92 mg/dL; Maintenance of blood glucose levels within the target range ([1]; once weekly administration, target 65-155 mg/dL): aided in maintaining blood glucose levels within the target range; Reduction of BMI from baseline [2]: about 9%; Average body mass index (BMI) ([2]; baseline BMI 25): 22.8; Decrease in blood glucose, average ([3]; 4 rhesus monkeys having impaired glucose tolerance, day 8, oral GNTI 86 ng/kg): 26%; HDL-C increase, average [3, 14]: 23%; HDL-C increase, range [3, 14]: 10-31%; Decrease in blood glucose levels ([3]; glucose normal rhesus monkey r89163, day 8, oral GNTI 86 ng/kg): 3%; Increase in HDL-C lipid levels ([3]; lipid normal rhesus monkey r98068, day 8, oral GNTI 86 ng/kg): 5%; BG [3, 15]: 51 mg/dL and 53 mg/dL and 67 mg/dL and 56 mg/dL and 63 mg/dL; HDL-C [3, 15]: 85 mg/dL and 46 mg/dL and 61 mg/dL and 63 mg/dL and 84 mg/dL; TG [3, 15]: <45 mg/dL (3×) and 89 mg/dL and 60 mg/dL; BG Change ([3]; rhesus monkeys, individual animals, Day 8 vs Baseline, oral GNTI 86 ng/kg): (−3%); Effect on glucagon after MTT ([4]; both dosages (45 and 95 ng/kg), time points 60 and 120, all subjects tested): marked decrease in glucagon; BG [4, 16]: 83 mg/dL and 69 mg/dL and 51 mg/dL; GIP [4, 16]: 50 pg/mL and 8 pg/mL; GLP-1 [4, 16]: 34 pmol/L and 19 pmol/L and 11 pmol/L; Glucagon [4, 16]: 411 pg/mL (2×) and 302 pg/mL; Insulin [4, 16]: 57 microU/mL and 23 microU/mL and 14 microU/mL; BG [4, 17]: 98 mg/dL and 70 mg/dL and 64 mg/dL; GIP [4, 17]: 640 pg/mL and 320 pg/mL and 650 pg/mL; GLP-1 [4, 17]: 83 pmol/L and 49 pmol/L and 31 pmol/L; Glucagon [4, 17]: 366 pg/mL and 172 pg/mL and 267 pg/mL; Insulin [4, 17]: 396 microU/mL and 145 microU/mL and 122 microU/mL; BG [4, 18]: 61 mg/dL and 78 mg/dL and 76 mg/dL; GIP [4, 18]: 760 pg/mL and 775 pg/mL; GLP-1 [4, 18]: 31 pmol/L and 82 pmol/L and 79 pmol/L; Glucagon [4, 18]: 261 pg/mL and 249 pg/mL and 122 pg/mL; Insulin [4, 18]: 200 microU/mL and 249 microU/mL and 137 microU/mL; Glucagon Change T0-T60/120 ([4]; Day 5, GNTI 45 ng/kg cumulative, T0 to T60 min): −11% and −43% and −35%; Glucagon Change T0-T60/120 ([4]; Day 5, GNTI 45 ng/kg cumulative, T0 to T120 min): −36% and −39% and −60%; BG [4, 19]: 56 mg/dL and 82 mg/dL and 73 mg/dL; GIP [4, 19]: 30 pg/mL and 25 pg/mL and 20 pg/mL; GLP-1 [4, 19]: 28 pmol/L and 60 pmol/L and 67 pmol/L; Glucagon [4, 19]: 472 pg/mL and 487 pg/mL and 293 pg/mL; Insulin [4, 19]: 14 microU/mL and 71 microU/mL and 30 microU/mL; BG [4, 20]: 70 mg/dL and 106 mg/dL and 69 mg/dL; GIP [4, 20]: 675 pg/mL (2×) and 75 pg/mL; GLP-1 [4, 20]: 35 pmol/L and 60 pmol/L; Glucagon [4, 20]: 240 pg/mL and 351 pg/mL and 107 pg/mL; Insulin [4, 20]: 100 microU/mL and 401 microU/mL and 54 microU/mL; BG [4, 21]: 63 mg/dL and 95 mg/dL and 86 mg/dL; GIP [4, 21]: 675 pg/mL and 775 pg/mL and 240 pg/mL; GLP-1 [4, 21]: 223 pmol/L and 77 pmol/L; Glucagon [4, 21]: 271 pg/mL and 267 pg/mL and 108 pg/mL; Insulin [4, 21]: 54 microU/mL and 307 microU/mL and 71 microU/mL; Glucagon Change T0-T60/120 ([4]; Day 7, GNTI 95 ng/kg cumulative, T0 to T60 min): −49% and −28% and −63%; Glucagon Change T0-T60/120 ([4]; Day 7, GNTI 95 ng/kg cumulative, T0 to T120 min): −43% and −45% and −63%
